The subject of assay [1] is Plutella xylostella. Nature of the assay: Leaf dip assay 1 (based on IRAC susceptibility test method 018, performed by FERA). The format is in vivo. As to conditions: unformulated peptide at 2x10^-4 M; Chinese cabbage leaf discs dipped 10 seconds; larvae (2nd/3rd instar); mortality assessed after 120 hours; Figure 4. On the procedure: The assay was carried out based on IRAC susceptibility test method 018 by a contract research organization, FERA Science Ltd. Test insects Larvae (2nd/3rd instar) were sourced from a laboratory culture of P. xylostella. The culture has been maintained in a controlled environment (CE) room with conditions of 25 °C and 16:8 lighting regime on Chinese cabbage plants. Chinese cabbage leaves were used in the bioassays. A CE room set at 25 °C and 60% r.h. with a 16 hour light: 8 hours dark lighting regime, was used. Leaf discs (approximately 35mm in diameter) were cut from fully expanded Chinese cabbage leaves. Each leaf disc was dipped in a separate peptide solution for 10 seconds with gentle agitation and placed on a damp filter paper (underside surface uppermost). There were ten replicates for each treatment and control, with five leaf discs per replicate. The treated discs were then put onto damp filter paper in the base of a Petri dishes (90 mm in diameter, 15 mm high) (underside surface uppermost). Five larvae were then transferred onto the treated leaf discs. The dishes were placed in the CE room and mortality was assessed after 120 hours. Leaf dip assays were performed with SB-P-81, and compared to a negative control vehicle and a current commercial insecticide Gazelle SG (shown as the active Acetamiprid). […]

Assay [2] has as its system Plutella xylostella. The experiment in a line: Leaf dip assay 2 (based on IRAC susceptibility test method 019). Type of assay: in vivo. As to conditions: unformulated peptide at 1x10^-4 M; leaf disc on 1% agar; after 96 hours; Figure 6. On the procedure: The assay was carried out based on IRAC susceptibility test method 019 (https://irac-online.org/methods/aphids-adultnymphs/). Fill a small 4 cm wide 3 cm high dish with a 1% agar treatment solution of the active chemical or control (ensuring 1 cm gap between the agar and the lid) and leave to set. Dip a 2.5 cm leaf disc into 3 ml of treatment solution allowing the treatment to coat the leaf. Leave the disc to dry for 1 hour and place onto the set agar. Place insects (Plutella xylostella) onto each of the leaf discs. Each unit is sealed with a close-fitting, ventilated lid. Place the agar dishes in a small plastic tray lined with moist tissue paper and ensure the water trays in the bottom of the incubator are filled with clean water and place within the incubator. An assessment of mortality is made at 72, 96 and 120 hours. Leaf dip assays were performed with SB-P-81, and compared to a negative control vehicle and a current commercial insecticide Chlorantraniliprole. The activity of SB-P-81 is shown in Figure 6; SB-P-81 has good activity whilst being eco-friendly and targeted to specific pests unlike broad spectrum chemical insecticides such as Chlorantraniliprole.

Structures are written as SMILES. Where a SMILES comes first, the peptide text is derived from it.

As to `CSCC[C@H](NC(=O)[C@H](CO)NC(=O)CNC(=O)CN)C(=O)N[C@H](C(=O)N[C@@H](Cc1ccccc1)C(=O)N[C@@H](CO)C(=O)N1CCC[C@H]1C(=O)N[C@@H](CCCNC(=N)N)C(=O)N[C@@H](CC(C)C)C(N)=O)[C@@H](C)O` [SB-P-81, [Hy]-GGSMTFSPRL-[NH2]] (H-GGSMTFSPRL-NH2), the “activity against Plutella xylostella (mortality)” value in assay [1] and in assay [2] was “good activity” throughout.

The values are drawn from patent EP4545547B1, “INSECT NEUROPEPTIDES” (Solasta Bio Limited, priority 2023, dated 2025).
